pIC50: −log10 of the molar value.
Biological target: T1, dopamine transporter (Rattus norvegicus, UniProt P23977)
T1 construct: Corpus striatum from male Wistar rats (150-200 g) is homogenized; from tissue; host or cells: rat corpus striatum membrane pellet
Assay: In vitro inhibition of 3H-WIN 35428 binding
Settings: corpus striatum membranes of male Wistar rats; 1 nM 3H-WIN 35428, 60 min at 2° C.; read-out: In Vitro IC50 (inhibition of specific binding of 3H-WIN 35428)
From the text: The compounds of the present invention have been tested for their ability to bind to the dopamine transporter in the following tests for in vitro inhibition of ^3H-WIN 35428.
In vitro Inhibition of ^3H-WIN 35428 Binding
Dopamine transporters/uptake sites on nerve terminals presumably function to terminate neuronal signaling by removing dopamine from the synaptic cleft. The activity or presence of the dopamine transporter integral protein can be measured in vitro with synaptosomal uptake of ^3H-dopamine or membrane binding assays with ^3H-ligands known to bind to the transporter.
Numerous ligands of several structural types have been reported to bind at the dopamine uptake site, but it remains questionable whether their binding sites are identical to that of cocaine. A structural analog og cocaine, ^3H-WIN 35428, binds selectively and with high affinity to the dopamine transporter complex.
Tissue preparation: Preparations are performed at 0-4° C. unless otherwise indicated. […]
Assay: Aliquots of 0.5 ml tissue are added to 25 ml of test solution and 25 ml of ^3H-WIN 35428 (1 nM, final concentration), mixed and incubated for 60 min at 2° C. Non-specific binding is determined using cocaine (30 mM, final concentration). […] The amount of radioactivity on the filters is determined by conventional liquid scintillation counting. […]

T1 sequence (P23977 whole entry): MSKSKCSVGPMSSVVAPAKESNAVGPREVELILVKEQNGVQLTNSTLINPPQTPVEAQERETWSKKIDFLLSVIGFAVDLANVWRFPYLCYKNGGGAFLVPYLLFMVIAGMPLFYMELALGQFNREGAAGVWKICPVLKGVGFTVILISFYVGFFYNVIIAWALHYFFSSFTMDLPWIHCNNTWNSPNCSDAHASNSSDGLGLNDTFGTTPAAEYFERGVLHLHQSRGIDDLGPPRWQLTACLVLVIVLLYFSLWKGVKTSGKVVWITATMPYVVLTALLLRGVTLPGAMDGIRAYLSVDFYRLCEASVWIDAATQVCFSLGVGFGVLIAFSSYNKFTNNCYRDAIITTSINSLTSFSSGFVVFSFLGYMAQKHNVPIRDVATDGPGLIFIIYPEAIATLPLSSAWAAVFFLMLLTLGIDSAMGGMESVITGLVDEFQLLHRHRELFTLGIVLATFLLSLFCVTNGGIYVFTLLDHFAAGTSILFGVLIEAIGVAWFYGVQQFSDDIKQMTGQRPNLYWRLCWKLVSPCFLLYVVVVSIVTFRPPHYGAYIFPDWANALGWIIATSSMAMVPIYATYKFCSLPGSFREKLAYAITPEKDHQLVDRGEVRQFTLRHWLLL

`CON=CC1CN(C)CCC1c1ccc(Cl)c(Cl)c1` (stereo not shown) [1-Metyl-3-methoxyiminomethyl-4-(3,4-dichlorophenyl)piperidine] was tested, and the pIC50 was 7.80.
